Results on 1 cell line are retold here after the supplement of paper PMC10307832.

What all share (test): relative viability (nuclei count vs DMSO), 5 days (fraction); higher = more cells survive
Compound in test [1]: COc1cc2c(Oc3ccc4[nH]c(C)cc4c3F)ncnc2cc1OCCCN1CCCC1 [Cediranib] + CC(C)C[C@H](NC(=O)[C@H](Cc1ccccc1)NC(=O)c1cnccn1)B(O)O [Bortezomib] (partner 0.002 µM)
The method in brief:
(§1)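 For relative viability, nuclei counts in treated wells were divided by those in vehicle wells. Lung cancer cell lines had been pin-tool dosed in 1536-well plates the day after seeding and cultured for 5 days, then fixed and stained in one step (final 0.05% Triton X-100, 1% formaldehyde, 1 ug/ml Hoechst) and imaged at 4×. Doses were one drug alone or a fixed anchor-drug dose plus five library-drug doses (not always all listed) in √10 steps, and values are duplicate-plate medians.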

Compound in test [2]: O=C(C[C@H]1NCCC[C@@H]1O)Cn1cnc2cc(Br)c(Cl)cc2c1=O (racemic) [Halofuginone] + Cc1nc(Nc2ncc(C(=O)Nc3c(C)cccc3Cl)s2)cc(N2CCN(CCO)CC2)n1 [Dasatinib] (partner 0.075 µM)
The method in brief: as §1

Compound in test [3]: COc1cc2c(Oc3ccc4[nH]c(C)cc4c3F)ncnc2cc1OCCCN1CCCC1 [Cediranib] + CS(=O)(=O)CCNCc1ccc(-c2ccc3ncnc(Nc4ccc(OCc5cccc(F)c5)c(Cl)c4)c3c2)o1 [Lapatinib] (partner 2 µM)
The method in brief: as §1

Compound in test [4]: Nc1ncn([C@H]2C[C@H](O)[C@@H](CO)O2)c(=O)n1 [Decitabine] + CC(=O)Nc1cccc(-n2c(=O)n(C3CC3)c(=O)c3c(Nc4ccc(I)cc4F)n(C)c(=O)c(C)c32)c1 [Trametinib] (partner 0.02 µM)
The method in brief: as §1

For UMC-11, the relative viability in test [1] (first compound 0.04 µM) worked out at 1.02; in test [1] (first compound 0.1265 µM), 0.442; in test [1] (first compound 0.4 µM), 0.683; in test [1] (first compound 1.265 µM), 0.628; in test [1] (first compound 4 µM) it was 0.547; in test [2] (first compound 0.001 µM), 0.472. Also, the relative viability in test [2] (first compound 0.003162 µM) amounted to 0.427; in test [2] (first compound 0.01 µM) it was 0.407; in test [2] (first compound 0.03162 µM) it was 0.357; in test [2] (first compound 0.1 µM), 0.293; in test [3] (first compound 0.04 µM), 1.07; in test [3] (first compound 0.1265 µM) it was 0.48. The relative viability worked out at 0.938 in test [3] (first compound 0.4 µM); 0.525 in test [3] (first compound 1.265 µM); 0.963 in test [3] (first compound 4 µM); 0.697 in test [4] (first compound 0.04 µM); 0.609 in test [4] (first compound 0.1265 µM); 0.4 in test [4] (first compound 0.4 µM). For the same cell line, the relative viability came out at 0.331 in test [4] (first compound 1.265 µM) and 0.367 in test [4] (first compound 4 µM).
